Experimental data as given in US20260250318A1, “COMPOSITIONS AND METHODS FOR CROSSING THE BLOOD BRAIN BARRIER” (VOYAGER THERAPEUTICS, INC., priority 2022, published 2026).

What was measured:
brain = test: Matured TTM-001 and TTM-002 variants, NGS enrichment in mouse brain; type: in vivo, mice; details: NGS fold-enrichment, relative to AAV9 control
[1] = system: brains, heart, liver, muscle, and DRG of the NHPs; test: Maturation of TTM-001 and TTM-002 capsids, NGS enrichment in NHP tissues; type: in vivo; details: relative to AAV9 control
In short: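 Variants carry mutations within and flanking the loop IV peptide insert: positions 450–466 were triplet-randomized, while positions 449–466 received low-frequency point mutations. The combined pool went into two NHPs, and each peptide was scored by NGS enrichment ratio against AAV9.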

[2] = NGS fold-enrichment of RNA, NHP brain
[3] = NGS fold-enrichment, NHP liver DNA
[4] = NGS fold-enrichment, NHP liver RNA
[5] = NGS fold-enrichment, NHP muscle
[6] = NGS fold-enrichment, DRG of NHPs
[7] = NGS fold-enrichment, RNA, brain of NHPs
[8] = NGS fold-enrichment, heart of NHPs
[9] = NGS fold-enrichment, liver DNA of NHPs
[10] = NGS fold-enrichment, liver RNA of NHPs
[11] = NGS fold-enrichment, muscle of NHPs

Sequence: KTINGHESPHKSAQNRQT
- Fold Enrichment relative to AAV9, Brain (Mouse) (brain; mouse brain): 4.815 fold
- Fold Enrichment relative to AAV9, Brain (NHP) [1, 2]: 95.531 fold
- Fold Enrichment relative to AAV9, DRG (NHP) ([1]; NGS fold-enrichment, NHP DRG): 0.000 fold
- Fold Enrichment relative to AAV9, Heart (NHP) ([1]; NGS fold-enrichment, NHP heart): 0.113 fold
- Fold Enrichment relative to AAV9, Liver DNA (NHP) [1, 3]: 0.082 fold
- Fold Enrichment relative to AAV9, Liver RNA (NHP) [1, 4]: 0.130 fold
- Fold Enrichment relative to AAV9, Muscle (NHP) [1, 5]: 0.000 fold

Sequence: KTINGHESPHKSGQNIQP
- Fold Enrichment relative to AAV9, Brain (Mouse) (brain; mouse brain): 14.042 fold
- Fold Enrichment relative to AAV9, Brain (NHP) [1, 2]: 253.840 fold
- Fold Enrichment relative to AAV9, DRG (NHP) ([1]; NGS fold-enrichment, NHP DRG): 0.000 fold
- Fold Enrichment relative to AAV9, Heart (NHP) ([1]; NGS fold-enrichment, NHP heart): 0.000 fold
- Fold Enrichment relative to AAV9, Liver DNA (NHP) [1, 3]: 0.000 fold
- Fold Enrichment relative to AAV9, Liver RNA (NHP) [1, 4]: 0.000 fold
- Fold Enrichment relative to AAV9, Muscle (NHP) [1, 5]: 0.000 fold

Sequence: KTINGHESPHKSGQNQHS
- Fold Enrichment relative to AAV9, Brain (Mouse) (brain; mouse brain): 9.720 fold
- Fold Enrichment relative to AAV9, Brain (NHP) [1, 2]: 92.248 fold
- Fold Enrichment relative to AAV9, DRG (NHP) ([1]; NGS fold-enrichment, NHP DRG): 0.000 fold
- Fold Enrichment relative to AAV9, Heart (NHP) ([1]; NGS fold-enrichment, NHP heart): 0.032 fold
- Fold Enrichment relative to AAV9, Liver DNA (NHP) [1, 3]: 0.088 fold
- Fold Enrichment relative to AAV9, Liver RNA (NHP) [1, 4]: 0.090 fold
- Fold Enrichment relative to AAV9, Muscle (NHP) [1, 5]: 0.012 fold

Sequence: KTINGHESPHKSGQTQQI
- Fold Enrichment relative to AAV9, Brain (Mouse) (brain; mouse brain): 3.989 fold
- Fold Enrichment relative to AAV9, Brain (NHP) [1, 2]: 86.089 fold
- Fold Enrichment relative to AAV9, DRG (NHP) ([1]; NGS fold-enrichment, NHP DRG): 0.000 fold
- Fold Enrichment relative to AAV9, Heart (NHP) ([1]; NGS fold-enrichment, NHP heart): 0.222 fold
- Fold Enrichment relative to AAV9, Liver DNA (NHP) [1, 3]: 0.024 fold
- Fold Enrichment relative to AAV9, Liver RNA (NHP) [1, 4]: 0.000 fold
- Fold Enrichment relative to AAV9, Muscle (NHP) [1, 5]: 0.000 fold

Sequence: KTINGHESPHKSGRSQQT
- Fold Enrichment relative to AAV9, Brain (Mouse) (brain; mouse brain): 9.378 fold
- Fold Enrichment relative to AAV9, Brain (NHP) [1, 2]: 97.106 fold
- Fold Enrichment relative to AAV9, DRG (NHP) ([1]; NGS fold-enrichment, NHP DRG): 0.000 fold
- Fold Enrichment relative to AAV9, Heart (NHP) ([1]; NGS fold-enrichment, NHP heart): 3.329 fold
- Fold Enrichment relative to AAV9, Liver DNA (NHP) [1, 3]: 0.181 fold
- Fold Enrichment relative to AAV9, Liver RNA (NHP) [1, 4]: 0.000 fold
- Fold Enrichment relative to AAV9, Muscle (NHP) [1, 5]: 0.022 fold

Sequence: KTINGHGSPHSKAQNPQT
- Fold Enrichment relative to AAV9, Brain (Mouse) (brain; mouse brain): 11.001 fold
- Fold Enrichment relative to AAV9, Brain (NHP) [1, 2]: 83.478 fold
- Fold Enrichment relative to AAV9, DRG (NHP) ([1]; NGS fold-enrichment, NHP DRG): 0.000 fold
- Fold Enrichment relative to AAV9, Heart (NHP) ([1]; NGS fold-enrichment, NHP heart): 0.288 fold
- Fold Enrichment relative to AAV9, Liver DNA (NHP) [1, 3]: 0.260 fold
- Fold Enrichment relative to AAV9, Liver RNA (NHP) [1, 4]: 0.000 fold
- Fold Enrichment relative to AAV9, Muscle (NHP) [1, 5]: 0.219 fold

Sequence: KTINGIGSPHSKAQNLGT
- Fold Enrichment relative to AAV9, Brain (Mouse) (brain; brain of mice): 104.769 fold
- Fold Enrichment relative to AAV9, DRG (NHP) [1, 6]: 0.000 fold
- Fold Enrichment relative to AAV9, Brain (NHP) [1, 7]: 70.543 fold
- Fold Enrichment relative to AAV9, Heart (NHP) [1, 8]: 0.071 fold
- Fold Enrichment relative to AAV9, Liver DNA (NHP) [1, 9]: 0.135 fold
- Fold Enrichment relative to AAV9, Liver RNA (NHP) [1, 10]: 0.000 fold
- Fold Enrichment relative to AAV9, Muscle (NHP) [1, 11]: 0.000 fold

Sequence: KTINGLGSPHSKSQNQQT
- Fold Enrichment relative to AAV9, Brain (Mouse) (brain; brain of mice): 64.139 fold
- Fold Enrichment relative to AAV9, DRG (NHP) [1, 6]: 0.000 fold
- Fold Enrichment relative to AAV9, Brain (NHP) [1, 7]: 62.170 fold
- Fold Enrichment relative to AAV9, Heart (NHP) [1, 8]: 0.157 fold
- Fold Enrichment relative to AAV9, Liver DNA (NHP) [1, 9]: 0.107 fold
- Fold Enrichment relative to AAV9, Liver RNA (NHP) [1, 10]: 0.146 fold
- Fold Enrichment relative to AAV9, Muscle (NHP) [1, 11]: 0.000 fold

Sequence: KTINGNDSPHKSVQNHQT
- Fold Enrichment relative to AAV9, Brain (Mouse) (brain; mouse brain): 7.920 fold
- Fold Enrichment relative to AAV9, Brain (NHP) [1, 2]: 120.002 fold
- Fold Enrichment relative to AAV9, DRG (NHP) ([1]; NGS fold-enrichment, NHP DRG): 0.000 fold
- Fold Enrichment relative to AAV9, Heart (NHP) ([1]; NGS fold-enrichment, NHP heart): 0.099 fold
- Fold Enrichment relative to AAV9, Liver DNA (NHP) [1, 3]: 0.000 fold
- Fold Enrichment relative to AAV9, Liver RNA (NHP) [1, 4]: 0.000 fold
- Fold Enrichment relative to AAV9, Muscle (NHP) [1, 5]: 0.788 fold

Sequence: KTINGNGSPHSKAQNHQA
- Fold Enrichment relative to AAV9, Brain (Mouse) (brain; mouse brain): 36.754 fold
- Fold Enrichment relative to AAV9, Brain (NHP) [1, 2]: 88.274 fold
- Fold Enrichment relative to AAV9, DRG (NHP) ([1]; NGS fold-enrichment, NHP DRG): 0.000 fold
- Fold Enrichment relative to AAV9, Heart (NHP) ([1]; NGS fold-enrichment, NHP heart): 0.024 fold
- Fold Enrichment relative to AAV9, Liver DNA (NHP) [1, 3]: 0.041 fold
- Fold Enrichment relative to AAV9, Liver RNA (NHP) [1, 4]: 0.000 fold
- Fold Enrichment relative to AAV9, Muscle (NHP) [1, 5]: 0.000 fold
